Molecules are shown by their SMILES. Some results are limits rather than exact numbers.

For this experiment, the target named is T1, ATM (Homo sapiens, UniProt Q13315).
T1 construct: detecting phosphorylation of Chk2 in a human non-small cell lung cancer cell line NCI-H460 (ATCC company); host or cells: NCI-H460 human non-small cell lung cancer cells
T1 sequence (Q13315 whole entry): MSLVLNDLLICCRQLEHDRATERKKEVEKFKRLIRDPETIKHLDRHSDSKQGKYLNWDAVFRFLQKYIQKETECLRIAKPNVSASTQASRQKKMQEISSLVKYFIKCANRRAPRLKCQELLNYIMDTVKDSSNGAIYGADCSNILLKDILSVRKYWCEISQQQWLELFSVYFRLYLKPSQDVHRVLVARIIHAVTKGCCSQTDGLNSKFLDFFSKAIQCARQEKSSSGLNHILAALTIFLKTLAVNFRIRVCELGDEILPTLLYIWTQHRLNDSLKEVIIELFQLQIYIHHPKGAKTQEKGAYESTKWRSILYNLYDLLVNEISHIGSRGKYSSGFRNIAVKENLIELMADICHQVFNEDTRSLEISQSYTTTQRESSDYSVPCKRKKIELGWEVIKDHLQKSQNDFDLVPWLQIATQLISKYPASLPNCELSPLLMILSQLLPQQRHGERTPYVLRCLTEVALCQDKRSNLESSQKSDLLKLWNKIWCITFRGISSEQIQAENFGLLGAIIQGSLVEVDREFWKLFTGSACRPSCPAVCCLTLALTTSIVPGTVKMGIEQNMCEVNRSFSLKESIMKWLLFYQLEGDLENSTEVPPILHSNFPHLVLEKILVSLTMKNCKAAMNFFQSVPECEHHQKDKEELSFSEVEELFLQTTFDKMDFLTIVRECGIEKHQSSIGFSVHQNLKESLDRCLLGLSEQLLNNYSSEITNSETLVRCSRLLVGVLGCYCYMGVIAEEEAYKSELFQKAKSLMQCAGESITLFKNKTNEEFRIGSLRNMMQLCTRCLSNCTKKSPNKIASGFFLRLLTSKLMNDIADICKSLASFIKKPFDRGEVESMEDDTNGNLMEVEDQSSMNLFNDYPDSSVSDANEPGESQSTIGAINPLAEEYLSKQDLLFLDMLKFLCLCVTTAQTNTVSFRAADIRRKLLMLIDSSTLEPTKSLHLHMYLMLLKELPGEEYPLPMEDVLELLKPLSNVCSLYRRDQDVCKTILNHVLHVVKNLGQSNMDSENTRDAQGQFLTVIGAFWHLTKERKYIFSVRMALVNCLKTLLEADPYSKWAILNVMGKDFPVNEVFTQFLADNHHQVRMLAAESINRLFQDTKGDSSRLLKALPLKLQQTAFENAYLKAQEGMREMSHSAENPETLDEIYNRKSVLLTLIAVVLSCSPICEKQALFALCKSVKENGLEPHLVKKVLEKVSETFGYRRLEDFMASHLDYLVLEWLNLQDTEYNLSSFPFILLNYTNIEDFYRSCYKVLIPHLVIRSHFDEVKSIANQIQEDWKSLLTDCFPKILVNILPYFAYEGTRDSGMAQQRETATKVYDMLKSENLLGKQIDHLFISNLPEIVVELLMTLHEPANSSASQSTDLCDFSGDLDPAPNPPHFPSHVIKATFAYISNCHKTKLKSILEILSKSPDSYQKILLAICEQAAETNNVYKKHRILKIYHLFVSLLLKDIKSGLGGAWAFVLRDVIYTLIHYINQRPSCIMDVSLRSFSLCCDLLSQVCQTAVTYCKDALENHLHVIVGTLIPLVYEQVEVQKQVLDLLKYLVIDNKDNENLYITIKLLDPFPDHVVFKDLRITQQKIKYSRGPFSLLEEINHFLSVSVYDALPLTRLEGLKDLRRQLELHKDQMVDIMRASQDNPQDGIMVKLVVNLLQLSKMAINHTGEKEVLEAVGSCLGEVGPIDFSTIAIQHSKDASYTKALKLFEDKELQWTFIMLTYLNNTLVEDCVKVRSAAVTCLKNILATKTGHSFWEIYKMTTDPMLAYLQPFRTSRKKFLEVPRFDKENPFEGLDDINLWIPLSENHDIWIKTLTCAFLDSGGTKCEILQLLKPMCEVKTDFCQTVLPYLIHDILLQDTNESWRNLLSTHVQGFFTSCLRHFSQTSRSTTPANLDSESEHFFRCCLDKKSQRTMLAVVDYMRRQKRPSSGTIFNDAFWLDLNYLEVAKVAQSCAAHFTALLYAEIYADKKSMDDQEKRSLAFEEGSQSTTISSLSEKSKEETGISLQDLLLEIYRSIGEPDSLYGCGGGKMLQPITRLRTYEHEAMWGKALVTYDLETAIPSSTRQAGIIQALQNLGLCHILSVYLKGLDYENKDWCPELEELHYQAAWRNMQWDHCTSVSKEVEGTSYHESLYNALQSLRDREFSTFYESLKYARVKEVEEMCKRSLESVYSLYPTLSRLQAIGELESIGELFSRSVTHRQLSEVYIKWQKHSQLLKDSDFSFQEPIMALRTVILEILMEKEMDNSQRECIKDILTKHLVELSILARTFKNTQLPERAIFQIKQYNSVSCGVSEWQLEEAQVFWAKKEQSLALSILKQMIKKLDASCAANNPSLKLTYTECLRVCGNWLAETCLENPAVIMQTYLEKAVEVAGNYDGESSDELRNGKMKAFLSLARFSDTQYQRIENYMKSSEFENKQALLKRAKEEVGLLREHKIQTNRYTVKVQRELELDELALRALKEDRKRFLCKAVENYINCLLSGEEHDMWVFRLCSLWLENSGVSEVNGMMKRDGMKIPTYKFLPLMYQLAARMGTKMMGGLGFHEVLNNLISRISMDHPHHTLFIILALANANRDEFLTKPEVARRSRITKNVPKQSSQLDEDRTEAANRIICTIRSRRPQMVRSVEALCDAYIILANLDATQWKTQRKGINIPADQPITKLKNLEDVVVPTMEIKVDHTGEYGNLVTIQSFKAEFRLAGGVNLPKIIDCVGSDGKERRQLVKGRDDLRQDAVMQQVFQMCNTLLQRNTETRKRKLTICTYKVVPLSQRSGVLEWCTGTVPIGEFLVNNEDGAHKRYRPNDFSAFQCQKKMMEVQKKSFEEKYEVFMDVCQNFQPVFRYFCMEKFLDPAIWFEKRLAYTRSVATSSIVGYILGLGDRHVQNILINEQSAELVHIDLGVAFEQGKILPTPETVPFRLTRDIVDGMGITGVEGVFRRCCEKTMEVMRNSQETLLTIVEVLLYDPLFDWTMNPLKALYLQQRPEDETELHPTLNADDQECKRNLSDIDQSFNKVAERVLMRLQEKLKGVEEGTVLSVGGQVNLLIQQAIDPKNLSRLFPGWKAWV
Briefly: ATM inhibition test (phosphorylation of Chk2 generated by ionizing radiation, AlphaScreen SureFire). Type of experiment: cell-based. As to conditions: phosphorylated Chk2 in NCI-H460 cells, ionizing radiation 8Gy, 1 hour after test compound treatment; read-out: ATM inhibitory activity. The method, boiled down:
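Human NCI-H460 lung cancer cells were treated with compound for 1 h, then irradiated at 8Gy and incubated 1 h at 37° C. Phospho-Chk2 was quantified by AlphaScreen SureFire; inhibition % was normalised between irradiated untreated and non-irradiated untreated wells.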
`CN1CC(Nc2ccc3c(c2)Sc2cccc(-c4cc(N5CCOCC5)cc(=O)[nH]4)c2S3)C(N2CCOCC2)C1` (racemic) [Example 11-2, 6-(7-((1-Methyl-4-morpholinopyrrolidin-3-yl)amino)thianthren-1-yl)-4-morpholinopyridin-2(1H)-one]: the IC50 lay within 100 to 500 nM.

Consider `O=c1cc(N2CCOCC2)cc(-c2cccc3c2Oc2ccc(NC4CCN(Cc5cncc(F)c5)CC4)cc2C3)[nH]1` [Example 2-28-18, 6-(7-((1-((5-Fluoropyridin-3-yl)methyl)piperidin-4-yl)amino)-9H-xanthen-4-yl)-4-morpholino pyridin-2(1H)-one], for which the IC50 was in the range of 100 to 500 nM.

As to `N#Cc1cccc(CNc2ccc3c(c2)Cc2cccc(-c4cc(N5CCOCC5)cc(=O)[nH]4)c2O3)c1` [Example 2-3-15, 3-(((5-(4-Morpholino-6-oxo-1,6-dihydropyridin-2-yl)-9H-xanthen-2-yl)amino)methyl) benzonitrile], the IC50 is 100 to 500 nM.

On to `O=c1cc(N2CCOCC2)cc(-c2cccc3c2Oc2ccc(NC4CCN(Cc5cc(C6CC6)ccn5)CC4)cc2C3)[nH]1` [Example 2-28-30, 6-(7-((1-((4-Cyclopropylpyridin-2-yl)methyl)piperidin-4-yl)amino)-9H-xanthen-4-yl)-4-morpholino pyridin-2(1H)-one], for which the IC50 is 100 to 500 nM.

`O=c1cc(N2CCOCC2)cc(-c2cccc3c2Oc2ccc(NC4CCN(Cc5cnccn5)CC4)cc2C3)[nH]1` [Example 2-28-7, 4-Morpholino-6-(7-((1-(pyrazin-2-ylmethyl)piperidin-4-yl)amino)-9H-xanthen-4-yl)pyridin-2 (1H)-one]: the IC50 lay within 500 to 2000 nM.

For `CC(=O)Nc1cncc(CNc2ccc3c(c2)Cc2cccc(-c4cc(N5CCOCC5)cc(=O)[nH]4)c2O3)c1` [Example 2-2-13, N-(5-(((5-(4-Morpholino-6-oxo-1,6-dihydropyridin-2-yl)-9H-xanthen-2-yl)amino)methyl)pyridin-3-yl)acetamide], the IC50 is 500 to 2000 nM.

`COCCN1CCC(Nc2ccc3c(c2)Cc2cccc(-c4cc(N5CCOCC5)cc(=O)[nH]4)c2O3)CC1` [Example 2-29, 6-(7-((1-(2-Methoxyethyl)piperidin-4-yl)amino)-9H-xanthen-4-yl)-4-morpholinopyridin-2(1H)-one]: the IC50 is 500 to 2000 nM.

For `COc1ncc(CNc2ccc3c(c2)Sc2cccc(-c4cc(N5CCOCC5)cc(=O)[nH]4)c2S3)cn1` [Example 1-12-10, 6-(7-(((2-Methoxypyrimidin-5-yl)methyl)amino)thianthren-1-yl)-4-morpholino pyridin-2(1H)-one], the IC50 was 100 to 500 nM.

For the compound `CC(Nc1ccc2c(c1)Sc1cccc(-c3cc(N4CCOCC4)cc(=O)[nH]3)c1S2)c1cccc(CN2CCCC2)n1` (centres unmarked) [Example 1-12-110, 4-Morpholino-6-(7-((1-(6-(pyrrolidin-1-ylmethyl)pyridin-2-yl)ethyl)amino)thianthren-1-yl)pyridin-2 (1H)-one], the IC50 is 500 to 2000 nM.

`COc1cncc(C(C)Nc2ccc3c(c2)Sc2cccc(-c4cc(N5CCOCC5)cc(=O)[nH]4)c2S3)n1` (centres unmarked) [Example 1-12-78, 6-(7-((1-(6-Methoxypyrazin-2-yl)ethyl)amino)thianthren-1-yl)-4-morpholino pyridin-2 (1H)-one]: the IC50 fell in the range of 100 to 500 nM.

Turning to `CC(CN1CCN(Cc2cccnc2)CC1)Nc1ccc2c(c1)Sc1cccc(-c3cc(N4CCOCC4)cc(=O)[nH]3)c1S2` (centres unmarked) [Example 1-15-3, 4-Morpholino-6-(7-((1-(4-(pyridin-3-ylmethyl)piperazin-1-yl)propan-2-yl)amino)thianthren-1-yl)pyridin-2(1H)-one], the IC50 was 100 to 500 nM.

On to `COc1ccc(CNc2ccc3c(c2)Sc2cccc(-c4cc(N5CCOCC5)cc(=O)[nH]4)c2S3)cn1` [Example 1-12-16, 6-(7-(((6-Methoxypyridin-3-yl)methyl)amino)thianthren-1-yl)-4-morpholino pyridin-2 (1H)-one], for which the IC50 is 100 to 500 nM.

For `Cc1cc(CNc2ccc3c(c2)Cc2ccnc(-c4cc(N5CCOCC5)cc(=O)[nH]4)c2O3)ccn1` [Example 2-42-3, 6-(7-(((2-Methylpyridin-4-yl)methyl)amino)-5H-chromeno[2,3-c]pyridin-1-yl)-4-morpholinopyridin-2(1H)-one], the IC50 fell in the range of 100 to 500 nM.

Regarding `O=c1cc(N2CCOCC2)cc(-c2cc(F)cc3c2Oc2ccc(NCc4cc(C5CC5)ccn4)cc2C3)[nH]1` [Example 2-48-4, 6-(7-(((4-Cyclopropylpyridin-2-yl)methyl)amino)-2-fluoro-9H-xanthen-4-yl)-4-morpholinopyridin-2(1H)-one], the IC50 was 100 to 500 nM.

With `O=c1cc(N2CCOCC2)cc(-c2cccc3c2Sc2ccc(NCc4cccnn4)cc2C3)[nH]1` [Example 3-8-12], the IC50 fell in the range of 500 to 2000 nM.

Turning to `COc1ccncc1CN1CCC(Nc2ccc3c(c2)Sc2cccc(-c4cc(N5CCOCC5)cc(=O)[nH]4)c2S3)C1` (centres unmarked) [Example 1-24-10, 6-(7-((1-((4-Methoxypyridin-3-yl)methyl)pyrrolidin-3-yl)amino)thianthren-1-yl)-4-morpholino pyridin-2(1H)-one], the IC50 is 100 to 500 nM.

On to `O=c1cc(N2CCOCC2)cc(-c2cccc3c2Oc2ccc(NC4CCN(Cc5ccco5)CC4)cc2C3)[nH]1` [Example 2-28-27, 6-(7-((1-(Furan-2-ylmethyl)piperidin-4-yl)amino)-9H-xanthen-4-yl)-4-morpholino pyridin-2(1H)-one], for which the IC50 lay within 100 to 500 nM.

With `Cc1ccc(C(CCN(C)CCO)Nc2ccc3c(c2)Sc2cccc(-c4cc(N5CCOCC5)cc(=O)[nH]4)c2S3)nc1` (single isomer, unassigned) [Example 10-4-1, 6-(7-((3-((2-Hydroxyethyl)(methyl)amino)-1-(5-methylpyridin-2-yl)propyl)amino)thianthren-1-yl)-4-morpholinopyridin-2(1H)-one], the IC50 is less than 100 nM.

For the compound `O=c1cc(N2CCOCC2)cc(-c2cccc3c2Oc2ccc(NCc4cccc(C(F)(F)F)c4)cc2C3)[nH]1` [Example 2-3-14, 4-Morpholino-6-(7-((3-(trifluoromethyl)benzyl)amino)-9H-xanthen-4-yl) pyridin-2(1H)-one], the IC50 fell in the range of 100 to 500 nM.

With `O=c1cc(N2CCOCC2)cc(-c2cccc3c2Sc2ccc(NCC4CCN(Cc5cccnc5)CC4)cc2S3)[nH]1` [Example 1-11, 4-morpholino-6-(7-(((1-(pyridin-3-ylmethyl)piperidin-4-yl)methyl)amino)thianthren-1-yl)pyridin-2(1H)-one], the IC50 was 100 to 500 nM.

As for `Cc1cncc(C(C)Nc2ccc3c(c2)Cc2cccc(-c4cc(N5CCOCC5)cc(=O)[nH]4)c2O3)c1` (centres unmarked) [Example 2-14-22, 6-(7-((1-(5-Methylpyridin-3-yl)ethyl)amino)-9H-xanthen-4-yl)-4-morpholino pyridin-2(1H)-one], the IC50 lay within 100 to 500 nM.

Take `O=c1cc(N2CCOCC2)cc(-c2cccc3c2Sc2ccc(N[C@H](CCN4CCOCC4)CN4CCOCC4)cc2S3)[nH]1` [Example 8-1, (R)-6-(7-((1,4-dimorpholinobutan-2-yl)amino)thianthren-1-yl)-4-morpholinopyridin-2(1H)-one]: the IC50 was in the range of 100 to 500 nM.

As to `CC(CN1CC(F)(F)C1)Nc1ccc2c(c1)Sc1cccc(-c3cc(N4CCOCC4)cc(=O)[nH]3)c1S2` (centres unmarked) [Example 1-43-4, 6-(7-((1-(3,3-Difluoroazetidin-1-yl)propan-2-yl)amino)thianthren-1-yl)-4-morpholino pyridin-2(1H)-one], the IC50 was in the range of 100 to 500 nM.

The values above are taken from patent US9586951B2 (FUJIFILM Corporation, priority 2013, dated 2017).
